Measurements from patent US8466279B2, “Polymorphs of efavirenz” (Hetero Drugs Limited, priority 2004, dated 2013).

How the values were obtained:
[1] = dissolution properties compared with the known forms; assay type: physicochemical
[2] = stability of the crystalline form; assay type: physicochemical

dissolution properties [1]	stability over the time [2]	stability relative to reported forms ([2]; versus Form I, Form II, Form III, Form 1, Form 2, Form 3, Form 4 and Form 5)	Compound
better dissolution properties			O=C1Nc2ccc(Cl)cc2[C@@](C#CC2CC2)(C(F)(F)F)O1 [amorphous efavirenz, (4S)-6-chloro-4-(cyclopropylethynyl)-1,4-dihydro-4-(trifluoromethyl)-2H-3,1-benzoxazin-2-one]
	stable over the time	at least as stable as the reported forms	O=C1Nc2ccc(Cl)cc2[C@@](C#CC2CC2)(C(F)(F)F)O1 [efavirenz form H1, (4S)-6-chloro-4-(cyclopropylethynyl)-1,4-dihydro-4-(trifluoromethyl)-2H-3,1-benzoxazin-2-one]
